Source: patent US10035830B2, “Method for treatment of GM1 gangliosidosis” (Korea Research Institute of Bioscience and Biotechnology, priority 2014, dated 2018)

How the values were obtained:
GM1-NPCs = assay: Gene expression pattern in GM1-NPCs treated with inflammasome inhibitor (microarray, qPCR); format: cell-based, human; settings: for tendency of changed genes to recover to the normal gene expression pattern: GM1-NPCs treated with Z-YVAD-FMK (10 μM) or rhIL1RA (1 μg/ml), FIG. 31, 33
Experimental: Particularly, GM1-iPSCs were constructed by the same manner as described in Example 2 and the differentiation of GM1-NPCs was induced by the same manner as described in Example <4-1>. Then, RNA was extracted from GM1-fibroblasts, GM1-iPSCs, or GM1-NPCs by using RNAiso Plus (Takara, Japan) or RNeasy mini kit (Qiagen, USA) according to the manufacturer's protocol. Reverse transcription PCR (PT PCR) was performed using 1˜2 μg of the extracted RNA as a template with Superscript III (Invitrogen, USA) in order to synthesize cDNA of the cell genome. Upon completion of the RT-PCR, 10 μl of qPCR reaction mixture was prepared by mixing 0.2 μl of the reaction product above, 1 μM oligonucleotide primer, […] of FAST SYBR green master mix (Applied Biosystems, USA), and distilled water, which proceeded to qPCR using 7500 Fast Real-time PCR system (Applied Biosystems, USA). The expression of the control GAPDH gene was also confirmed by the same manner as described above to correct the expression level. Based on the expression level of GAPDH mRNA, the fold change of NESTIN, NCAM, PAX6, OTX2, or REX1 mRNA was calculated.
Particularly, GM1-iPSCs were constructed by the same manner as described in Example 2, and the differentiation of GM1-NPCs was induced therefrom by the same manner as described in Example <4-1>. Then, GM1-fibroblasts, GM1-iPSCs, and GM1-NPCs were obtained. Microarray was performed by using Low RNA input linear amplification kit, cRNA cleanup module, and Whole Human Genome Microarray 4×44K (Agilent Technology, USA) according to the manufacturer's protocol. The obtained microarray images were revised as signals corresponding to WT-fibroblasts, WT-iPSCs, and WT-NPCs.
Particularly, GM1-NPCs were differentiated according to the method described in Example <4-1>, and then treated with rhIL1RA or Z-YVAD-FMK by the same manner as described in Example <9-1>. Microarray was performed by the same manner as described in Example <7-1> in order to investigate the up- or down-regulation of the gene involved in inflammasome. […] WT-NPC was used as the normal control. As for the negative control, GM1-NPCs were treated with DMSO instead of rhIL1RA or Z-YVAD-FMK. The expression pattern (either up- or down regulation) and the mRNA expression level were investigated by the same manner as described above.

[1] = tested on: GM1-NPCs originated neurosphere; assay: Recovery of GM1-NPCs/neurosphere morphology by the inhibition of inflammasome (phase-contrast microscopy); format: cell-based, human; settings: GM1-NPCs cultured with 1 μg/ml rhIL1RA or 10 μM Z-YVAD-FMK, 2~4 weeks; FIG. 30a
Experimental: To investigate the recovery of neural damage caused by the increased activation of inflammasome related metabolic pathway in GM1, GM1-NPCs were treated with the inflammasome inhibitors IL1β antagonist (rhIL1RA) and caspase-1 inhibitor (Z-YVAD-FMK), and then the morphology of GM1-NPCs was investigated.
Particularly, the differentiation of GM1-NPCs was induced by the same manner as described in Example <4-1>. Then, the induced GM1-NPCs were cultured in the culture medium respectively treated with 1 μg/ml rhIL1RA (R&D Systems, USA) or 10 μM Z-YVAD-FMK (Merck Millipore, Germany) in order to inhibit inflammasome therein. 2˜4 weeks later, the cultured GM1-NPCs originated neurosphere was obtained. The morphology of neurosphere was observed by phase-contrast microscopy.

[2] = GM1-NPCs treated with Z-YVAD-FMK (10 μM), FIG. 32

Row | Compound | tendency of changed genes to recover to the normal gene expression pattern (GM1-NPCs) | increase of the reduced B4GALNT expression (GM1-NPCs; [2]) [fold] | reduction of GLB1 expression compared with that in GM1-NPCs (GM1-NPCs; [2]) [%] | oligo probe pairs displaying the changed expression pattern (GM1-NPCs; GM1-NPCs treated with Z-YVAD-FMK (10 μM), of total 27,375 oligo probe pairs, microarray, FIG. 31) [%] | morphology of GM1-neurosphere [1] | genes displaying the changed expression pattern (GM1-NPCs; GM1-NPCs treated with rhIL1RA (1 μg/ml), FIG. 33) [%]
1 | COC(=O)C[C@H](NC(=O)[C@H](C)NC(=O)[C@@H](NC(=O)C(Cc1ccc(O)cc1)NC(=O)OCc1ccccc1)C(C)C)C(=O)CF (stereo partly drawn) [Z-YVAD-FMK, methyl(3S)-3-[(2S)-2-[(2S)-2-(2-{[(benzyloxy)carbonyl]amino}-3-(4-hydroxyphenyl)propanamido)-3-methylbutanamido]propanamido]-5-fluoro-4-oxopentanoate] | tendency to recover their gene expression patterns changed by GM1 mediated neural damage back to the normal pattern | 2.6 | 47 | 9.3 | recovering the GM1 patient-specific cell morphology | 
2 | rhIL1RA: interleukin 1-receptor antagonist protein, SEQ. ID. NO: 2; cat #280-RA-050 (rhIL-1ra), R&D systems | tendency to recover the abnormal gene expression in GM1 cells to the normal expression pattern |  |  |  | recovering the GM1 patient-specific cell morphology | 3.6
